# From patent US20250195552A1, “METHODS OF USING AVERMECTIN COMPOSITIONS FOR THE TREATMENT OF INFLAMMATORY DISORDERS AND DOSING REGIMENS” (priority 2022, published 2025)
# “Also recorded” adds a separate entry of the source. Like-named read-outs stand apart in the source and are kept apart here.
# Assays:
# focal seizures = conditions: cited from earlier work
# [1] = Pharmacokinetics of Ivermectin B1a in SD rat plasma after IV or oral administration
# Experimental: Thirty-six male Sprague Dawley rats were randomly assigned into four groups, with nine male rats in each group. All animals in all groups are fasted overnight prior to the experimental date.
# Blood samples were collected from 6 of 9 animals per group at 0.5, 1, 2, 3, 4, 6, 8, 24, 72, 120, 168 hours post-dose.
# [2] = Ivermectin solubility determination in excipients
# Experimental: The solubility assessments were performed by continually adding a known amount of the API into each individual excipient and letting the excipient reach solubility equilibrium via API saturation (visible solid observed). The experiments were conducted at ambient conditions (25° C.) and were left to mix on a stir plate at 500 RPM for at least 72 hours.
# [3] = test system: Monocytes-derived dendritic cells (moDC); assay: TNF-α and IL-6 secretion in dendritic cells; type: cell-based, human; conditions: moDC stimulated by Pam2CSK4 and Pam3CSK4, 24 hours, ELISA
# Experimental: Monocytes-derived dendritic cells (moDC) were differentiated by culturing purified human monocytes with 25 ng/mL hGM-CSF and 50 ng/mL hTL-4 for 5-7 days to reach full differentiation. […] The supernatants were analyzed for IL-6 and TNF-α by ELISA. Bar graphs represent pooled data from 2-3 experiments.
# LPS-induced human PBMCs = assay: LPS-induced secretion of TNF-α, IL-6 and IL-23 in PBMCs; type: cell-based; conditions: PBMC, LPS activation for 2 days, ELISA
# Experimental: The supernatants were analyzed for TNF-α, IL-6, and IL-23 by ELISA.
# human PBMCs = assay: IL-17 and IFN-γ secretion in PBMCs stimulated by anti-CD3/CD28 in vitro; type: cell-based; conditions: anti-CD3/CD28 stimulation, 48 hours, ELISA
# Experimental: The supernatants were analyzed for IL-17 and IFN-γ by ELISA. One representative of three different experiments is shown.
# C57BL/6 mice = assay: Experimental autoimmune encephalomyelitis (EAE) model of MS; type: in vivo, mouse; conditions: 1, 2, 4 mg/kg oral once daily, therapeutic from Day 14 to Day 34
# Experimental: Vehicle was 1.6% DMSO in water. […] These were frozen at −20° C. Every 3 to 4 days, one aliquot was thawed and diluted with water to create a fine suspension at 0.8 mg/mL (for 4 mg/kg dosing). Final DMSO concentration was 1.6%. […] Per customer, all dosing formulations were stable for up to 4 days at 4° C. FTY720 stock solution (30 mg/mL in ethanol) was prepared for all ongoing studies. Daily, the FTY720 stock solution was diluted with water to the final dosing concentration of 0.6 mg/mL.
# A balanced distribution of mice was confirmed by comparing mean day of onset, average score at EAE onset, average score on Day 14 and average weight on Day 13.
# EAE was induced on Day 0 by myelin oligodendrocyte glycoprotein (MOG35-55)/complete Freund's adjuvant (CFA) immunization, followed by pertussis toxin (PTX) injections on Days O and 1. Treatment was therapeutic, starting on Day 14. […] Treatment continued through Day 34. Mice were observed through the end of the study, Day 35.
# Clinical scores were assessed as follows: 1=limp tail, 2=partial hind leg paralysis, 3=complete hind leg paralysis, 4=complete hindleg and partial front leg paralysis; 5=moribund.
# [4] = test system: TLR-induced human monocytes; assay: IL-1β secretion in TLR-induced monocytes; type: cell-based; conditions: induced by LPS, Pam2CSK4 and Pam3CSK4 (100 ng/ml), 24 hours, ELISA
# Experimental: The supernatants were analyzed for IL-1β by ELISA.
# Sprague-Dawley rats = assay: Animal model of infantile spasms (NMDA-induced); type: in vivo, rat; conditions: 2 and 4 mg/kg i.p. daily P10-P15; p<0.05
# Description: A two-stage model of infantile spasms was developed (FIG. 23A). Pregnant Sprague-Dawley rats receive two injections of betamethasone on gestational (G) day 15. Offspring of those pregnancies are used for experiments during infancy, postnatal days (P) 10-15. Spasms are induced by i.p. injection of N-methyl-D-aspartic acid (NMDA), which is graded depending on the postnatal age of the subjects.
# Days of dosing were P10, P11, P12, P13, P14 and P15.
# [5] = test system: human CD4+ T cells activated under Th17 skewing conditions; assay: FoxP3 expression (RT-PCR) and percentage of FoxP3+ T cells (Flow Cytometry); type: cell-based; conditions: 1.5 mM of ivermectin, 5 days
# Experimental: FoxP3, IL-17A and RORc mRNA expression levels were tested by RT-PCR (A). The percentage of FoxP3^+ T cells was determined by Flow Cytometry by using intra-cellular staining with PE-conjugated anti-Foxp3 antibody (B).
# PBMCs of human subjects = assay: Phase 1: IL-17 secretion in PBMCs stimulated ex vivo after oral administration; conditions: oral 10-120 mg, significant at 80 and 120 mg SAD and at all MAD doses, anti-CD3/CD28 48 hrs
# Experimental: The supernatants were analyzed for IL-17 by ELISA.
# [6] = test system: STAT3 and IkBα phosphorylation in human CD4+ T cells; assay: Th17-induced STAT3 and IkBα phosphorylation (Western Blot); type: cell-based; conditions: Th17-skewing conditions, 2 hours
# Experimental: The cell lysates were prepared and analyzed by Western Blot. One representative of three different experiments is shown.
# [7] = test system: Th17-skewed human CD4+ T cells; assay: Cytokine secretion in Th17-skewed CD4+ T cells (ELISA); type: cell-based
# Experimental: The supernatants were analyzed for IL-17, TL-21 and IFN-γ by ELISA.
# [8] = single IV 2 mg/kg, fasting male SD rats, n = 6
compound,measurement,setting,value
"NC(=O)N1c2ccccc2C[C@H](O)c2ccccc21 [APTIOM, Eslicarbazepine]",Placebo-adjusted >50% Focal Seizure Reduction,focal seizures; 1200 mg,20%
same,Placebo-adjusted Median Reduction in Focal Seizure Frequency,focal seizures; 2000 mg,14-24%
"CCC[C@@H]1CC(=O)N([C@@H](CC)C(N)=O)C1 [BRIVIACT, Brivaracetam]",Placebo-adjusted >50% Focal Seizure Reduction,focal seizures; 200 mg,18%
same,Placebo-adjusted Median Reduction in Focal Seizure Frequency,focal seizures; 200 mg,26%
CCC(C)C1OC2(CCC1C)CC1CC(CC=C(C)C(OC3CC(OC)C(OC4CC(OC)C(O)C(C)O4)C(C)O3)C(C)C=CC=C3COC4C(O)C(C)=CC(C(=O)O1)C34O)O2 (stereo not drawn) [Ivermectin],AUC(0-t),[1]; [8],8259.31 ng·h/mL
same,AUC(0-∞),[1]; [8],8273.53 ng·h/mL
same,Cmax,[1]; [8],1722.67 ng/mL
same,MRT(0-t),[1]; [8],10.58 h
same,MRT(0-∞),[1]; [8],10.81 h
same,T1/2,[1]; [8],14.82 h
same,T1/2,"[1]; single IV injection 2 mg/kg, male SD rats with fasting",14.82 ± 0.72 h
same,Solubility,"[2]; in Capryol 90, 25° C.",150.92 mg/g
same,Solubility,"[2]; in Fractionated Coconut oil, 25° C.",16.55 mg/g
same,Solubility,"[2]; in Glycerin, 25° C.",<0.1 mg/g
same,Solubility,"[2]; in Kolliphor EL, 25° C.",95.85 mg/g
same,Solubility,"[2]; in Labrafil M 2125 CS, 25° C.",35.32 mg/g
same,Solubility,"[2]; in Labrasol ALF, 25° C.",126.36 mg/g
same,Solubility,"[2]; in LauroglycolTM FCC, 25° C.",71.96 mg/g
same,Solubility,"[2]; in Maisine CC, 25° C.",60.17 mg/g
same,Solubility,"[2]; in Masester E8120, 25° C.",164.06 mg/g
same,Solubility,"[2]; in Medium Chain Triglyceride, 25° C.",16.49 mg/g
same,Solubility,"[2]; in Oleic acid, 25° C.",48.58 mg/g
same,Solubility,"[2]; in Olive oil, 25° C.",4.71 mg/g
same,Solubility,"[2]; in PEG 400, 25° C.",112.92 mg/g
same,Solubility,"[2]; in Propylene glycol, 25° C.",25.61 mg/g
same,Solubility,"[2]; in Soybean oil, 25° C.",6.72 mg/g
same,Solubility,"[2]; in Span 20, 25° C.",97.66 mg/g
same,Solubility,"[2]; in Span 80, 25° C.",54.04 mg/g
same,Solubility,"[2]; in Triacetin, 25° C.",58.75 mg/g
same,Solubility,"[2]; in Tween 80, 25° C.",88.26 mg/g
same,Solubility,"[2]; in Vitamin E TPGS, table title 25° C., text: conducted at 40° C.",82.98 mg/g
same,IL-6 secretion,[3],significantly and in a dose-dependent manner down-regulates; also recorded: dose dependent decrease
same,TNF-α secretion,[3],significantly and in a dose-dependent manner down-regulates; also recorded: dose dependent decrease
same,EC50,"LPS-induced human PBMCs; read-out: EC50, decrease of IL-6",1300 nM
same,EC50,"LPS-induced human PBMCs; read-out: EC50, decrease of IL-23",470 nM
same,EC50,"LPS-induced human PBMCs; read-out: EC50, decrease of TNF-α",1400 nM
same,EC50,"human PBMCs; read-out: EC50, decrease of IFN-γ",987 nM
same,EC50,"human PBMCs; read-out: EC50, decrease of IL-17",416 nM
same,limb paralysis (clinical score) in EAE model of MS,C57BL/6 mice,significantly downregulates limb paralysis
same,IL-1β secretion,[4],significantly down-regulates; also recorded: reduced IL-1β in a dose-dependent manner
same,occurrence (number) of spasms triggered on P15 vs vehicle controls,Sprague-Dawley rats,significantly suppressed occurrence of spasms; also recorded: significantly fewer spasms
same,increase in the percentage of Foxp3+ T cells,[5]; Flow Cytometry,50%
same,FoxP3 mRNA levels,[5]; RT-PCR,up-regulation
same,IL-17A mRNA expression,[5]; RT-PCR,decreased
same,RORc mRNA expression,[5]; RT-PCR,decreased
same,ability of T cells to secrete IL-17 in response to TCR stimulation ex vivo,PBMCs of human subjects,down-regulates
same,STAT3 phosphorylation,[6],dose-dependent reduction
same,inhibitor molecule protein (IkB)α phosphorylation,[6],dose-dependent reduction
same,EC50,"[7]; Th17-skewing conditions, additional experiment (FIG. 6B), read-out: EC, inhibition of CXCL13 secretion",378 nM
same,EC50,"[7]; anti-CD3/CD28 + IL-1β + TGF-β (Th17-skewing), 48 hours, ELISA, read-out: EC50, inhibition of IFN-γ secretion",541 nM
same,EC50,"[7]; anti-CD3/CD28 + IL-1β + TGF-β (Th17-skewing), 48 hours, ELISA, read-out: EC50, inhibition of IL-17 secretion",450 nM
same,EC50,"[7]; anti-CD3/CD28 + IL-1β + TGF-β (Th17-skewing), 48 hours, ELISA, read-out: EC50, inhibition of IL-21 secretion",364 nM
"CC[C@@H](C(N)=O)N1CCCC1=O [KEPPRA, Leviteracetam]",Placebo-adjusted >50% Focal Seizure Reduction,focal seizures; 3000 mg,29%
same,Placebo-adjusted Median Reduction in Focal Seizure Frequency,focal seizures; 3000 mg,23-31%
"COC[C@@H](NC(C)=O)C(=O)NCc1ccccc1 [VIMPAT, Lacosamide]",Placebo-adjusted >50% Focal Seizure Reduction,focal seizures; 400 mg,17%
same,Placebo-adjusted Median Reduction in Focal Seizure Frequency,focal seizures; 400 mg,15-29%
"NC(=O)O[C@@H](Cn1ncnn1)c1ccccc1Cl [XCOPRI, Cenobamate]",Placebo-adjusted >50% Focal Seizure Reduction,focal seizures; 400 mg,39%
same,Placebo-adjusted Median Reduction in Focal Seizure Frequency,focal seizures; 4200 mg,31%
Cc1cc(N2CCc3cc(F)ccc3C2)cc(C)c1NC(=O)CC(C)(C)C [XEN1101],Placebo-adjusted >50% Focal Seizure Reduction,focal seizures; 25 mg,40%
same,Placebo-adjusted Median Reduction in Focal Seizure Frequency,focal seizures; 25 mg,35%
